Square brackets hold non-standard residues; d marks the D form. Ends that are not written are not given here. pGlu = O=C1CC[C@@H](C(=O)O)N1
Assays:
latrophilin-1 = target: T1, latrophilin-1 (Mus musculus, UniProt Q80TR1); test: Co-localization of FITC-TCAP-1 with latrophilin-1 in Hypo E-38 cells; type: binding
T1 construct: only latrophilin 1 and 3 could be detected in this cell line or in the intact mouse brain; endogenous in cells; host or cells: Hypo E-38 (mHypoE-38) immortalized embryonic mouse hypothalamic neurons
T1 sequence (Q80TR1 29-1466): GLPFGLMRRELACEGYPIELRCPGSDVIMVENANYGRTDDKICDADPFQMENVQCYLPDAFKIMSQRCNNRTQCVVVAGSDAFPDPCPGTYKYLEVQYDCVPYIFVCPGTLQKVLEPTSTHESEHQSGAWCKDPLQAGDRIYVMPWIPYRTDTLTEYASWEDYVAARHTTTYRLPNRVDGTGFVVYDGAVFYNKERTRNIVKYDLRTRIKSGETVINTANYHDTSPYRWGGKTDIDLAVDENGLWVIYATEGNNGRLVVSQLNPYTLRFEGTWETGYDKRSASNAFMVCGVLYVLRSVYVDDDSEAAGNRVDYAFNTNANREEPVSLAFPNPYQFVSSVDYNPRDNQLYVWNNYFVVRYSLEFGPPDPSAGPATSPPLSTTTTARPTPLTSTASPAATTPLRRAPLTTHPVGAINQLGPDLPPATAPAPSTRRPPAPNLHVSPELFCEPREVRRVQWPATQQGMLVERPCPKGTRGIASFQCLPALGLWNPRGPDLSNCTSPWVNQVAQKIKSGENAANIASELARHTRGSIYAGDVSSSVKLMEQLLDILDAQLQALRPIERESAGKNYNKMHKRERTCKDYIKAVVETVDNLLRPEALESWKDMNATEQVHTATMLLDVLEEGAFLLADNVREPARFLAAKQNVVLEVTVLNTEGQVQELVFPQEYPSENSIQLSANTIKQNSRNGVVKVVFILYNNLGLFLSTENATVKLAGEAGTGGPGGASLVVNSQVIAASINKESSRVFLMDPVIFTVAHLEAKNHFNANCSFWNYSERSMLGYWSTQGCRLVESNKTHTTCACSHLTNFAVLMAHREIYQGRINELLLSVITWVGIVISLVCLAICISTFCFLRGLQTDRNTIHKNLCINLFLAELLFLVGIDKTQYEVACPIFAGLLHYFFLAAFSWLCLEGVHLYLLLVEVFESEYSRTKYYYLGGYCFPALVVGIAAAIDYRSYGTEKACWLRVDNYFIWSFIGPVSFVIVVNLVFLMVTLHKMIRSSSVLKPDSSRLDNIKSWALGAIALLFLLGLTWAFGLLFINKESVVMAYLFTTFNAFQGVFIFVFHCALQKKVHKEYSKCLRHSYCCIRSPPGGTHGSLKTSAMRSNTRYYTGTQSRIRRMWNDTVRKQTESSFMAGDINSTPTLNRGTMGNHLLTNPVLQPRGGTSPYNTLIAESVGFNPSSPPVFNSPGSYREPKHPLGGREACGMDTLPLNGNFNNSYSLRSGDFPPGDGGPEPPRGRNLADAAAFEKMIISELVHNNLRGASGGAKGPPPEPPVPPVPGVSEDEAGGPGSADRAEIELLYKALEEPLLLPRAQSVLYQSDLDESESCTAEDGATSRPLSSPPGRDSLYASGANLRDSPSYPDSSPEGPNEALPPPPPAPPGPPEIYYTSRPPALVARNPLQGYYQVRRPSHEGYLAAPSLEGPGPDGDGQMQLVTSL
Description: (§1) The [K8]-TCAP-1 peptide was labeled with fluorescein isothiocyanate (FITC) according to the EZ-label TITC Protein labeling kit (Pierce Biotechnology, Rockford Ill.). FITC was dissolved in dimethylformamide, mixed with the [K8]-TCAP-1 at a 24:1 excess molar ratio and incubated for 2 h at RT in the dark to allow for the conjugation of the primary amine of the lysine group. A dextran column was used to remove the unconjugated FITC and the absorbance of each fraction was measured at 280 nm to determine the elution point of the conjugated peptide in phosphate buffered saline (PBS; 0.1M phosphate, 0.15 M NaCl, pH7.2). The four fractions with the highest protein absorbance readings were combined and sterilize-filtered using an Acrodisc Syringe 0.2 μm Supor low protein binding filter (Pall Life Sciences, Ann Arbor, Mich.). […] The amount of the FITC required to be injected as a control was determined by applying different PBS-diluted preparations of FITC on a nitrocelluose membrate. The level of fluorescence was directly compared to that of a spot of the FITC-[K8]-TCAP-1 conjugate to be administered and that dilution was used for the administration after sterilize-filtration indicated above. Fluorescence was measured using an EP Chemi II Darkroom system (UVP, Upland, Calif.) with the sequential integration function of LabWorks Image acquisition and analysis software. […]

[1] = system: skeletal mouse muscle fibers; test: FITC-TCAP-1 binding assay on skeletal mouse muscle sections; conditions: fluorescence, co-staining with β-DG
Description: as §1

C2C12 myocytes = test: 3H-2-deoxyglucose uptake in C2C12 myocytes; type: cell-based, mouse; conditions: 100 nM, over two hours (FIG. 20)
Description: The effect of TCAP-1 on glucose uptake in muscle cells was examined in a C2C12 mouse myocyte cell line. C2C12 myocytes were cultured in Dulbecco's Modified Eagle Medium (DMEM) containing 4500 mg/L D-glucose, L-glutamine, and 25 mM HEPES buffer, without sodium pyruvate or phenol red (Gibco, Cat. No. 21063029), supplemented with 20% heat-inactivated fetal bovine serum (FBS), 100 U/ml penicillin and 100 μg/ml streptomycin. Cells were maintained at 80% confluency at 37° C. in a humidified CO2 incubator. To initiate differentiation, myocytes were further cultured in DMEM supplemented with 10% heat-inactivated horse serum (HS), transferrin, 100 U/ml penicillin and 100 μg/ml streptomycin. Myocytes were allowed to differentiate into multi-nucleated myotubes for 5 days before experimentation. 24 hours prior to experimentation, medium was changed. At day 5 of differentiation, cells were deprived of serum and incubated in Minimal Essential Medium containing 1000 mg/L D-glucose, L-glutamine, without nucleosides (Gibco, Cat. No. 12561049) for 5 hours at 37° C. prior to incubation with insulin, TCAP-1, or saline. Cells were washed twice in glucose-free HEPES-buffered solution (HBS), containing 140 mM NaCl, 20 mM HEPES, 5 mM KCl, 2.5 mM MgSO4 and 1 mM CaCl2, followed by determinations of transport of 3H-2-deoxyglucose for 10 minutes at 0.5 μCi/ml at room temperature. Uptake of 3H-2-deoxyglucose was stopped immediately after 10 minutes with three washes of ice-cold 0.9% NaCl solution. Parallel experiments with 5 μM of cytochalasin B were done to ensure that glucose uptake was of transporter-inhibitable transport The cells were digested with 1 ml of 0.05 N NaOH. Cell lysates were used for determination of radioactivity by a beta liquid scintillation counter. Experiments were repeated three times with 3 wells per condition per replication. […] Cell lysates were used for determination of radioactivity by a beta liquid scintillation counter. […]

mHypoE-38 neurons = test: 3H-2-deoxyglucose uptake in mHypoE-38 hypothalamic neurons; type: cell-based, mouse
Description: The effect of TCAP-1 on glucose uptake in brain cells was examined in immortalized […] hypothalamic cells. Immortalized mHypoE-38 hypothalamic embryonic mouse neurons (gift from Dr. Denise Belsham, University of Toronto) were grown in Dulbecco's Modified Eagle Medium (DMEM) containing 4500 mg/L D-glucose, L-glutamine, and 25 mM HEPES buffer, without sodium pyruvate or phenol red (Gibco, Cat. No. 21063029), supplemented with 5% heat-inactivated fetal bovine serum (FBS), 100 U/ml penicillin and 100 μg/ml streptomycin. Cells were maintained at 60-70% confluency at 37° C. in a humidified CO2 incubator. To passage, cells were washed once in sterile PBS, trypsinized and seeded at a density of 100,000 cells per 3.5 cm plate and allowed to grow for 2-3 days. 24 hours prior to experimentation, medium was changed. mHypoE-38 hypothalamic cells were grown in 6-well tissue culture dishes (Corning Incorporated, Cat. No. 3516) at a seeding density of200 000 cells/9.5 cm^2 well in a 37° C. normoxic incubator. Cultures were grown for 36 hours to 85% confluence prior to experimentation. At day 3 post-plating, cells were washed twice with Locke's buffer (154 mM NaCl, 5.6 mM KCl, 2.3 mM CaCl2, 3.6 mM NaHCO3, 5 mM HEPES) without serum and glucose. The culture was incubated in the Locke's buffer for 1 hour at 37° C. followed by exposure to 100 nM insulin, 100 nM TCAP-1, 100 nM SC-TCAP-1, or saline. KCl (40 mM) and […] (0.5 μCi/ml) were added to culture 5 minutes before termination of treatment exposure. Uptake of ^3H-2-deoxyglucose was stopped immediately after 5 minutes with three washes of ice-cold 0.9% NaCl solution. Parallel experiments with 5 μM of cytochalasin B were performed to ensure that glucose uptake was of transporter-inhibitable transport. The cells were digested with 1 ml of 0.05 N NaOH at 0, 15, 30, 45, 60, 90 and 120 minutes after treatment. Cell lysates were used for determination of radioactivity by a beta liquid scintillation counter. Experiments were repeated three times with 3 wells pear condition per replication. […] hypothalamic cells were cultured as above and treated with 100 nM insulin, 100 nM TCAP-1 or saline, exposed to 5.6 mM or 40 mM KCl and 0.5 μCi/well 3H-2-deoxy glucose, and subsequently lysed with 50 mM NaOH. Radioactivity in cell lysates was counted using a liquid scintillation counter.

Row | Substance | co-localization with latrophilin-1 immunoreactivity (latrophilin-1) | binding to 5 μm sections of mouse gastrocnemius muscle [1] | 3H-2-deoxyglucose uptake signal (C2C12 myocytes) | 3H-2-deoxyglucose uptake value relative to baseline (mHypoE-38 neurons; 100 nM, 40 mM KCl, 60 minutes) | 3H-2-deoxyglucose uptake relative to baseline (mHypoE-38 neurons; 100 nM, 40 mM KCl, 90 minutes) | 3HDG uptake in whole cells over time (mHypoE-38 neurons; Hypo-E38 cells (FIG. 11C-E))
1 | FITC-TCAP-1: [K8]-TCAP-1 peptide labeled with fluorescein isothiocyanate (FITC) (QQLLGTGKVQGYDGYFVLSVEQYLELSDSANNIHFMRQSEI; ends and bridges not checked; also: FITC label, attachment site not given here) | strong co-localization | preferentially binds to the membranes of individual skeletal mouse muscle fibers | – | – | – | –
2 | pETHSLELRVSLIGEVQQFIGYENQSDQNYGLLAYFDRVGMS-NH2 ([pGlu]THSLELRVSLIGEVQQFIGYENQSDQNYGLLAYFDRVGMS-NH2) [scTCAP-1, scrambled TCAP control with same amino acid composition but different order, pyroglutamic acid in first position] | – | – | lack of positive signal | 61.523±7.545% | 68.020±4.812% | no significant glucose uptake

Reference: US10617736B2, “Method for modulating insulin-independent glucose transport using teneurin C-terminal associated peptide (TCAP)” (priority 2014, dated 2020)
